According to patent US20140219925A1, “POLYMER PARTICLES OR NANO-VECTORS AND USE THEREOF AS A DRUG AND/OR DIAGNOSTIC AGENT” (INSERM (Institut National de la Sante et de la Recherche …, priority 2011, published 2014):
“And” between values parts separate entries of the source, which are not always exact repeats. Equal values may be shown once. Read-outs that look alike come from different tables or passages of the source.

Experiments:
HDAC = assay: BRET measurement of histone acetylation / HDAC inhibition in Met-5A cells; type: cell-based
Protocol: Cellular model: Met-5A cells (ATCC)
Seed 200000 cells per well of a 6-well plate in 2 ml of RPMI 10% FCS penicillin/streptomycin and glutamine.
D1: Transfection: phRluc-C1 BrD+pEYFP-C1 histone H3
600 ng of phRluc-C1 BrD+1500 ng of pEYFP-C1 histone H3 in 100 μl of crude RPMI.
After 6 h at 37° C., begin the treatments by adding 20 μl of treatment medium (RPMI 10% FCS penicillin, streptomycin and L-glutamine) comprising the test compounds at a ten-fold concentration.
Add 5 μl per well of coelenterazine h (Interchim) at 25 μM.
Parameters: Reading at 485 nm for 1 second and then reading at 530 nm for 1 second.
((value 530 nm phRluc-C1 BrD+pEYFP-C1 histone H3/value 480 nm phRluc-C1 BrD+pEYFP-C1 histone H3)-(value 530 nm phRluc-C1 BrD/value 480 nm phRluc-C1 BrD))×1000
Unit: milli BRET unit (mBu)
These experiments make it possible to evaluate the release of the HDAC inhibitors (HDI) in the live cells.

[1] = Hydrolysis in buffer solutions, release monitored by HPLC; type: physicochemical; conditions: for half-life at 1 mg/ml: 1 mg/ml in acetonitrile 80% / buffer solution 20%
Protocol: The compound is put into an acid medium (citrate buffer for pH 4.3 and […] buffer for pH 7.3) and release of CI-994 is monitored by HPLC. The hydrolysis of the compounds of the invention was carried out in buffer solutions (citrate buffer for pH 4.3 and […] for pH 7.3) at pH=4.3 and at pH=7.3. The concentration of the samples is 1 mg/ml in the solution: acetonitrile at 80% and buffer solution at 20%. […] In some cases the measurements were prolonged for 2 or 3 weeks, or even a month.

## CC(=O)Nc1ccc(C(=O)Nc2ccccc2N)cc1 [CI-994, reference compound]
HDAC; read-out: EC50 (BRET), average value±standard deviation of three independent experiments
  EC50: 0.86 ± 1.14 µM

## C#CCOCCOCCOCCOCCn1cc(C(Nc2ccccc2NC(=O)c2ccc(NC(C)=O)cc2)(c2ccccc2)c2ccccc2)nn1 [Compound 9c, N-(2-((1-(3,6,9,12-tetraoxapentadec-14-ynyl)-1H-1,2,3-triazol-4-yl)diphenylmethylamino)phenyl)-4-acetamidobenzamide]
[1]; pH 4.3 citrate buffer, read-out: t1/2 pH 4.3
  half-life at 1 mg/ml: 0.5 h
[1]; pH 7.3 Trisma buffer, read-out: t1/2 pH 7.3 (converted)
  half-life at 1 mg/ml: 86.4 h
HDAC; average value±standard deviation of three independent experiments, read-out: EC50 (BRET)
  EC50: 7.17 µM and 6.2 µM

## N^1-((1-(3,6,9,12-tetraoxapentadec-14-ynyl)-1H-1,2,3-triazol-4-yl)bis(4-fluorophenyl)methoxy)phenyl [Compound 21g]
[1]; pH 7.3
  time without hydrolysis: at least 1 month
